Assay [1] has as its system NCI-H292. In words: Cytotoxicity against human NCI-H292 cells after 72 hrs by MTT assay. The format is functional, cell-based. The settings on record: NCI-H292, 72 h. In general terms: Formazan colour is commonly taken as a measure of viable cells.
In assay [2] the test system is HT-29. In words: Cytotoxicity against human HT-29 cells after 72 hrs by MTT assay. The format is functional, cell-based. The settings on record: HT-29, 72 h.
A short description of assay [3]: Cytotoxicity against human MDA468 cells after 72 hrs by MTT assay. It is filed as functional, cell-based. The settings on record: MDA-MB-468, 72 h.
Assay [4] can be described thus: Cytotoxicity against human PC3 cells after 72 hrs by MTT assay. The format is functional, cell-based. The settings on record: PC-3, 72 h.
The target of assay [5] is T1, Tubulin (Bos taurus) (UniProt Q6B856+Q862L2+Q862F3). In words: Stabilization of bovine tubulin polymerization at 10 uM after 20 mins by spectrophotometer analysis. The format is protein assay.
Assay [6] has as its target T1, Tubulin (Bos taurus). Briefly: Induction of bovine tubulin polymerization at 5 uM after 20 mins by spectrophotometer analysis. It is filed as protein assay.

Active and inactive are the calls of the source. No cut-off for these calls is given here.

On to `CCC(=O)Nc1ccc2c(c1)c(CC(=O)NCCN(C)C)c(C)n2S(=O)(=O)c1ccccc1`, for which half-maximal inhibition in assay [1] (IC50) required 38.5 µM. `Cc1c(CC(=O)NCCN(C)C)c2cc(NC(=O)c3ccc(C#N)cc3)ccc2n1C(=O)c1ccc(Br)cc1`: the IC50 in assay [1] worked out at 20.8 µM. For the compound `Cc1c(CC(=O)NCCN(C)C)c2cc(NC(=O)OC(C)(C)C)ccc2n1C(=O)c1ccc(Br)cc1`, the midpoint of inhibition in assay [1], the IC50, lay at 14.9 µM. In the case of `CCCC(=O)Nc1ccc2c(c1)c(CC(=O)NCCN(C)C)c(C)n2C(=O)c1ccc(Br)cc1`, in assay [1], the IC50 is 39.6 µM. For `Cc1c(CC(=O)NCCN(C)C)c2cc(NC(=O)c3ccccc3)ccc2n1C(=O)c1ccc(Br)cc1`, the concentration for half-maximal inhibition (IC50) in assay [2] worked out at 6.72 µM; in assay [3], 7.67 µM; in assay [1] it was 13.4 µM; in assay [4] it was 13.2 µM. With `Cc1c(CC(=O)NCCN(C)C)c2cc(NC(=O)c3cccc(OCc4ccccc4)c3)ccc2n1C(=O)c1ccc(Br)cc1`, the IC50 in assay [2] was 1.48 µM; in assay [3] it was 2.37 µM; in assay [1] it was 1.73 µM; in assay [4], 8.8 µM. Moreover, the result in assay [5] and in assay [6] was Active. As for `Cc1c(CC(=O)NCCN(C)C)c2cc(N)ccc2n1C(=O)c1ccc(Br)cc1`, it took 31.5 µM to reach half-maximal inhibition in assay [1] (IC50). `Cc1c(CC(=O)NCCN(C)C)c2cc(NC(=O)OC(C)(C)C)ccc2n1S(=O)(=O)c1ccccc1` had a half-inhibitory concentration (IC50) in assay [1] of 25.9 µM. The same measure, in the same setting: to `Cc1c(CC(=O)NCCN(C)C)c2cc(NC(=O)C(C)C)ccc2n1S(=O)(=O)c1ccccc1` belongs 30.9 µM. On to `CC(=O)O[C@H]1C(=O)[C@@]2(C)[C@H]([C@H](OC(=O)c3ccccc3)[C@]3(O)C[C@H](OC(=O)[C@H](O)[C@@H](NC(=O)c4ccccc4)c4ccccc4)C(C)=C1C3(C)C)[C@]1(OC(C)=O)CO[C@@H]1C[C@@H]2O` [PACLITAXEL], for which the IC50 in assay [1] was 0.006 µM. Besides, the result in assay [5] was Active. `CC(=O)Nc1ccc2c(c1)c(CC(=O)NCCN(C)C)c(C)n2S(=O)(=O)c1ccccc1` returned an IC50 in assay [1] of 113 µM. Still for that read-out and setting: to `Cc1c(CC(=O)NCCN(C)C)c2cc(N)ccc2n1S(=O)(=O)c1ccccc1` belongs 64.2 µM; to `Cc1c(CC(=O)NCCN(C)C)c2cc(NC(=O)c3ccc(Br)cc3)ccc2n1S(=O)(=O)c1ccccc1`, 55.5 µM. `CC(=O)Nc1ccc2c(c1)c(CC(=O)NCCN(C)C)c(C)n2C(=O)c1ccc(Br)cc1` had an IC50 in assay [1] of 67.6 µM. For `Cc1c(CC(=O)NCCN(C)C)c2cc(NC(=O)c3cccc(OCc4ccccc4)c3)ccc2n1S(=O)(=O)c1ccccc1`, the IC50 in assay [1] worked out at 19.3 µM. On to `CCC(=O)Nc1ccc2c(c1)c(CC(=O)NCCN(C)C)c(C)n2C(=O)c1ccc(Br)cc1`, for which, in assay [1], the IC50 was found to be 21.8 µM. Consider `CCCC(=O)Nc1ccc2c(c1)c(CC(=O)NCCN(C)C)c(C)n2S(=O)(=O)c1ccccc1`, for which, in assay [1], the IC50 worked out at 33.5 µM. Take `COc1ccc(C(=O)Nc2ccc3c(c2)c(CC(=O)NCCN(C)C)c(C)n3C(=O)c2ccc(Br)cc2)cc1`: the IC50 came to 7.19 µM in assay [2], 8.16 µM in assay [3], 13.9 µM in assay [1] and 10.2 µM in assay [4].

The IC50 is the concentration that inhibits the measured activity by half. Read a low IC50 as greater potency.
